From ChEMBL document CHEMBL5375979, “Chemical, Biochemical, Cellular, and Physiological Characterization of Leucettinib-21, a Down Syndrome and Alzheimer's Disease Drug Candidate” (J Med Chem, 2023)

Experiments:
[1] = target: Dual specificity protein kinase CLK1 (Homo sapiens, UniProt P49759)
[2] = target: Dual specificity protein kinase CLK4 (Homo sapiens, UniProt Q9HAZ1)
[3] = target: Dual specificity tyrosine-phosphorylation-regulated kinase 1A (Homo sapiens, UniProt Q13627)
[4] = target: Dual specificity tyrosine-phosphorylation-regulated kinase 1B (Homo sapiens, UniProt Q9Y463)
Chain of Dual specificity tyrosine-phosphorylation-regulated kinase 1B (Q9Y463 whole entry): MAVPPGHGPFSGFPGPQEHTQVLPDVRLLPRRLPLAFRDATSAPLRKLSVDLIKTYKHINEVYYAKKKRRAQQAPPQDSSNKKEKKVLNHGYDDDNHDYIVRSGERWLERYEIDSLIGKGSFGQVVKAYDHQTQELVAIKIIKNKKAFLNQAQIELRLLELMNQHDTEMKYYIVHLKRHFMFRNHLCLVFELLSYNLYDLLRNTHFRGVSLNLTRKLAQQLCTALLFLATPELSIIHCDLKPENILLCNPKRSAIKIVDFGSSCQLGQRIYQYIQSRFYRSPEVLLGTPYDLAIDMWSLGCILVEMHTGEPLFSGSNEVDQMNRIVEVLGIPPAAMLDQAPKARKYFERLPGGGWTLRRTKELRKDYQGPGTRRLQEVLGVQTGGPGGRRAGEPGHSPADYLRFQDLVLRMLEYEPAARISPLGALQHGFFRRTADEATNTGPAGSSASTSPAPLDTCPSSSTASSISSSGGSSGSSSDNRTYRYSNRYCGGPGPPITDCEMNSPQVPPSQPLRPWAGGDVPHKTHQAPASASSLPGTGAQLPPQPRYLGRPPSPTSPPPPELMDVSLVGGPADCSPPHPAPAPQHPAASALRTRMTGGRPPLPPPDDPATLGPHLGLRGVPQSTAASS

[5] = target: Cyclin-dependent kinase 5 (Homo sapiens, UniProt Q00535)
Chain of Cyclin-dependent kinase 5 (Q00535 whole entry): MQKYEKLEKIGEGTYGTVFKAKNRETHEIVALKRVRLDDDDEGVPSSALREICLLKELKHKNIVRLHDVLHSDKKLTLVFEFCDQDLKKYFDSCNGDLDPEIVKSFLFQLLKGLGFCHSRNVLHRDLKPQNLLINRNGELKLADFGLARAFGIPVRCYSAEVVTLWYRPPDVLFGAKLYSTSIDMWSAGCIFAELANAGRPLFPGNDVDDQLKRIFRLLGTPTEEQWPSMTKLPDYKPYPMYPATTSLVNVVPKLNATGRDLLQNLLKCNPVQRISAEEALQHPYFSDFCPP

Casein kinase I = format: protein assay, Homo sapiens
[6] = target: Dual specificity protein kinase CLK2 (Homo sapiens, UniProt P49760)
Chain of Dual specificity protein kinase CLK2 (P49760 whole entry): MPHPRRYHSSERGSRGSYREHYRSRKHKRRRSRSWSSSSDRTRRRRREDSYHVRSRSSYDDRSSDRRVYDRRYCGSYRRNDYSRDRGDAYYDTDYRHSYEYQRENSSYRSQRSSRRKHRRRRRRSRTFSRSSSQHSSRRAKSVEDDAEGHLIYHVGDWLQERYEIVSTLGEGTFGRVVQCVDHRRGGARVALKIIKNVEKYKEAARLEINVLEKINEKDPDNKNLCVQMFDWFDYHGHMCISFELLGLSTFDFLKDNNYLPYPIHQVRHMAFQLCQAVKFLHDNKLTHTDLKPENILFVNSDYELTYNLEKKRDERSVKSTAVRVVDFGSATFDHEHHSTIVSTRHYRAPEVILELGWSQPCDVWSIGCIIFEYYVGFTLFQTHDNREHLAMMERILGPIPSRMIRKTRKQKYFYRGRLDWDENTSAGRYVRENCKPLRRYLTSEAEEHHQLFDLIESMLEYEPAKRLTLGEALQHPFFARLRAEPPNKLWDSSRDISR

[7] = target: Dual specificity protein kinase CLK3 (Homo sapiens, UniProt P49761)
Chain of Dual specificity protein kinase CLK3 (P49761 whole entry): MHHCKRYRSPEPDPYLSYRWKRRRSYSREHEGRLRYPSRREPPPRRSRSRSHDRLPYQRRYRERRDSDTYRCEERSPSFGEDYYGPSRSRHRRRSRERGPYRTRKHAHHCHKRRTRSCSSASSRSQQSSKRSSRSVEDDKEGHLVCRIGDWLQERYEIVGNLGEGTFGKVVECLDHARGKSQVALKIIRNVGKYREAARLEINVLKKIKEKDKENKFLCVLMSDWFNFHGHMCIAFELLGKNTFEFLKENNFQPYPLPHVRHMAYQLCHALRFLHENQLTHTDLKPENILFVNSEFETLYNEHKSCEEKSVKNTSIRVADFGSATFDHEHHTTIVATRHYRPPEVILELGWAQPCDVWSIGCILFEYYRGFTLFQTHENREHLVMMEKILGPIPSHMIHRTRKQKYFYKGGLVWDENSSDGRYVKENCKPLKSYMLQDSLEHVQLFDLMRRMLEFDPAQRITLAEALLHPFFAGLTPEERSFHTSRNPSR

[8] = target: T1, Dual specificity tyrosine-phosphorylation-regulated kinase 2 (Homo sapiens, UniProt Q92630)
T1 sequence (Q92630 whole entry): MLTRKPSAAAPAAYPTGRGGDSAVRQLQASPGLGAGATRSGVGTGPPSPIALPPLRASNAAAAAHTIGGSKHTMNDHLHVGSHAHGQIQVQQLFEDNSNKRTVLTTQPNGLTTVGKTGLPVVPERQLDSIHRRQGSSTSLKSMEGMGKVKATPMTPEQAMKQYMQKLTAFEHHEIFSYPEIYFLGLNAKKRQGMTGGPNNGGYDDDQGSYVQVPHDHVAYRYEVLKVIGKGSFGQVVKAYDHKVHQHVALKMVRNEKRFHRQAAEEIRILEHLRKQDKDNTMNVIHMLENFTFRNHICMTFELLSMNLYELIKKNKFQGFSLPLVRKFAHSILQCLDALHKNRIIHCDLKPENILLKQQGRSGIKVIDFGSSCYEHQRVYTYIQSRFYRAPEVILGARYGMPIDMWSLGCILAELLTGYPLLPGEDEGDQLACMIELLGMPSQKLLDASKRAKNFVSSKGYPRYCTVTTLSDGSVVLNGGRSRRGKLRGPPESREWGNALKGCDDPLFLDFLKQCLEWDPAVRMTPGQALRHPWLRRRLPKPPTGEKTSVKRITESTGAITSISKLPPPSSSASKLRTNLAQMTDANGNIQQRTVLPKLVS

[9] = target: T2, Dual specificity tyrosine-phosphorylation-regulated kinase 3 (Homo sapiens, UniProt O43781)
T2 sequence (O43781 whole entry): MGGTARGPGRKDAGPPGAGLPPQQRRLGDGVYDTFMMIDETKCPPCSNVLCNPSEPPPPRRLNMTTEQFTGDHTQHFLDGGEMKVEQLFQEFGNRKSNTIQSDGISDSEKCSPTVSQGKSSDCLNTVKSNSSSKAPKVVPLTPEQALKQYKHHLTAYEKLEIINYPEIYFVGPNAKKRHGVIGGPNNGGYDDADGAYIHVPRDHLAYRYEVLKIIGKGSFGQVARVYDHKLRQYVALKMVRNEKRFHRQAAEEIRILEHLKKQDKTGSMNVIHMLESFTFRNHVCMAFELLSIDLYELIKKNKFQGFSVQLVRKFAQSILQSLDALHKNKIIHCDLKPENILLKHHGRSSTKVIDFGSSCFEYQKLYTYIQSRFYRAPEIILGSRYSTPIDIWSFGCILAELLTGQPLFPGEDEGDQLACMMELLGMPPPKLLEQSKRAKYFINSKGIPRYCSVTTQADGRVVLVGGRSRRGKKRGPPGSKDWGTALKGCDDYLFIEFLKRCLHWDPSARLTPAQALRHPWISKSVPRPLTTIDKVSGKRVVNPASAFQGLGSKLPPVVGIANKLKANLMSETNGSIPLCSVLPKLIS

[10] = target: T3, Dual specificity tyrosine-phosphorylation-regulated kinase 4 (Homo sapiens, UniProt Q9NR20)
T3 sequence (Q9NR20 whole entry): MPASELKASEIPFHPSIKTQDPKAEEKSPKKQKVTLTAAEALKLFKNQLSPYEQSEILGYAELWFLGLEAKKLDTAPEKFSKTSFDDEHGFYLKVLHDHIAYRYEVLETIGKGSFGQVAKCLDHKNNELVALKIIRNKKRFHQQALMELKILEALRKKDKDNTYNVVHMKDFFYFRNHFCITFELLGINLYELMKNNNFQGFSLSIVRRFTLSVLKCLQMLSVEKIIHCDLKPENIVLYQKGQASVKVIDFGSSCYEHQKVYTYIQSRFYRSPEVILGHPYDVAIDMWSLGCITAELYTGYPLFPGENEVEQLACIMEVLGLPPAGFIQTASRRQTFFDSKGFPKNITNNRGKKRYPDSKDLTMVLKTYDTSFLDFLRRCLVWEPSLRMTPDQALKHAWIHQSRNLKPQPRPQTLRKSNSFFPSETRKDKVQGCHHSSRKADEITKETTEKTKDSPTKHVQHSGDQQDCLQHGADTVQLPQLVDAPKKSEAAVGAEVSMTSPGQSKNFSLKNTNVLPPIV

[11] = target: Glycogen synthase kinase-3 (Homo sapiens, UniProt P49840+P49841); format: protein assay

Chain of Dual specificity protein kinase CLK4 (Q9HAZ1 whole entry): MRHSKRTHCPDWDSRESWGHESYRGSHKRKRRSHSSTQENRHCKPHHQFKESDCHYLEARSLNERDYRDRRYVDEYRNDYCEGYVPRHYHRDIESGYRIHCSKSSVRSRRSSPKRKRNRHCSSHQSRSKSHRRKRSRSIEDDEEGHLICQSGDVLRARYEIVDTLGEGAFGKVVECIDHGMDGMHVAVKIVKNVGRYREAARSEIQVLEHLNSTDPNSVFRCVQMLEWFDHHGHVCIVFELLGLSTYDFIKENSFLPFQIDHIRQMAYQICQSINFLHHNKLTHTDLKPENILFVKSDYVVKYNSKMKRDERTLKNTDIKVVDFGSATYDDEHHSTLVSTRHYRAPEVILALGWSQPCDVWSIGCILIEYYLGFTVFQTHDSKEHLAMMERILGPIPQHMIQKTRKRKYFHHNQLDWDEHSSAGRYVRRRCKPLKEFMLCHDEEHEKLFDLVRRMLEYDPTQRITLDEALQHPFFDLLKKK
Chain of Dual specificity protein kinase CLK1 (P49759 whole entry): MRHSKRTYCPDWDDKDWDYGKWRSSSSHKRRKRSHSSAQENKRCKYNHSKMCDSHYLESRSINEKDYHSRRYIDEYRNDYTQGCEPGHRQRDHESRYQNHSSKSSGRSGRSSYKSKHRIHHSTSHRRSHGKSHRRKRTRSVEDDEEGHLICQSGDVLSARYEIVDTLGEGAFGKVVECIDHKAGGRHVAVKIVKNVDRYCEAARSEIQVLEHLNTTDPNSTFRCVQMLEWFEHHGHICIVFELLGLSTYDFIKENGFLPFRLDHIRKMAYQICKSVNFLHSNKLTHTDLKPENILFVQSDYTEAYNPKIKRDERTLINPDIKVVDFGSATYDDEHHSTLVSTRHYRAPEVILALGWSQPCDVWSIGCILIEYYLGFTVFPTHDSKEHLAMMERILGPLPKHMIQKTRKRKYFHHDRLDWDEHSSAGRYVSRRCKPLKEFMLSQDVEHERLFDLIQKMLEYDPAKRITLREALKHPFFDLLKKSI

| IC50 [1] | IC50 [2] | IC50 [3] | IC50 [4] | IC50 [5] | IC50 (Casein kinase I) | IC50 [6] | IC50 [7] | IC50 [8] | IC50 [9] | IC50 [10] | IC50 [11] | SMILES |
| --- | --- | --- | --- | --- | --- | --- | --- | --- | --- | --- | --- | --- |
| 2.45 µM | 1.01 µM | > 10 µM | > 10 µM | > 10 µM | > 10 µM | 6.47 µM | 5.32 µM | 0.774 µM | > 10 µM | > 10 µM | > 10 µM | COC[C@@H](CC(C)C)NC1=N/C(=C\c2ccc3ncsc3c2)C(=O)N1C1CCCC1 |
|  | 0.24 µM | 0.506 µM |  | > 10 µM | > 10 µM | 0.643 µM | 1.26 µM |  | 0.842 µM | 2.86 µM | 8.988 µM | COC[C@@H](CC(C)C)NC1=N/C(=C\c2ccc3ncsc3c2)C(=O)N1C1CC1 |
| > 10 µM | 6.49 µM |  |  | > 10 µM | > 10 µM | > 10 µM | > 10 µM |  | > 10 µM | > 10 µM | > 10 µM | COC[C@@H](CC(C)C)NC1=N/C(=C\c2cc3scnc3cn2)C(=O)N1 |
